The values that follow come from patent publication US8993637B2 (priority 2013, dated 2015).

The test system of this assay is RAW 264.7 macrophages. Put plainly: ROS production assay in LPS-activated macrophages. Format: cell-based, murine. Particulars: NAC 10 mM; 30 min before and during LPS (1 μg/ml) stimulation, 0-4 h. The procedure:
ROS production was measured as the relative fluorescence intensity. […] The data are expressed as the mean±SD for three separate experiments. *p<0.05, **p<0.01 compared to the LPS-treated group. RAW-Blue™ cells (Murine macrophages RAW264.7 stably transfected with the NF-κB reporter gene) purchased from InvivoGen (San Diego, Calif.). LPS (from Escherichia coli 0111:B4) and mouse antibodies against phospho-ERK1/2, phospho-JNK1/2, and phospho-p38 (all from Sigma, St. Louis, Mo.). Rabbit antibodies against mouse ERK1, JNK1, and p38, and HRP-labeled second antibodies were purchased from Santa Cruz Biotechnology, and IL-1β, IL-6, and TNF-α ELISA kits from R&D Systems. ROS production assay, NO production assay, NF-κB reporter assay, ELISA, and Western blotting were performed as described previously.

With `CC(=O)N[C@@H](CS)C(=O)O` [NAC, N-acetyl cysteine, reference compound], the “LPS-induced increase in ROS production” value is given as “reduced”.
